{
  "source": "patent US4672036A",
  "about": "“Pure cultures of Kibdelsporangium aridum Shearer gen. nov., sp. nov. ATCC 39323 and mutants thereof” (SmithKline Beckman Corporation, priority 1985, dated 1987)",
  "key": {"[1]": {"tested_on": "K. aridum", "assay": "susceptibility of K. aridum to antibiotics, disk diffusion method", "assay_type": "cell-based, Kibdelosporangium aridum", "conditions": "for zone of inhibition at 5 µg/disc: Kibdelosporangium aridum, 168 h", "method": "Susceptibility of K. aridum to antibiotics was examined by placing BBL susceptibility disks on nutrient agar plates seeded with K. aridum as an overlay. Diameters of the zones of inhibition were measured after incubation for one week at 28° C.\nChlortetracycline ([…]) produced 18 mm zones of inhibition; tetracycline (5 μg) 11-12 mm zones; rifampin (5 μg) 11-15 mm zones; novobiocin (5 μg) 27-28 mm zones. All zones of inhibition contained at least a few resistant colonies."}, "[2]": {"tested_on": "rumen in vitro model", "assay": "rumen in vitro model (growth promotant activity)", "parameters": "species or system steer", "method": "The protocol for the rumen in vitro model is analogous to the protocol for the swine in vitro model with the following modifications:\n(1) A 400 kg steer is surgically prepared with a rumen cannula.\n(2) The animal is fed one time a day with the following ration:\n(3) Manipulation of VFA production is described as the production ratio of propionate as a percentage of total VFA produced.\n(4) Sampling of the material, via the cannula, is at 120 minutes post feeding."}, "[3]": {"conditions": "rye diet; for Feed/Gain 3-10: days 3-10; for Feed/Gain 3-17: days 3-17; for Feed/Gain 10-17: days 10-17"}, "[4]": {"tested_on": "Swine in vitro model", "assay": "swine in vitro model (growth promotant activity)"}, "[5]": {"tested_on": "rumen in vitro model", "assay": "rumen in vitro model (growth promotant activity)", "parameters": "species or system steer", "remark": "listed apart in the source"}},
  "note": "Several values for one entry are separate records, joined by “and”; a condition that tells them apart may be missing. Identical values can stand only once. Like-named read-outs stand apart in the source and are kept apart here. Where a SMILES comes first, the peptide text is derived from it. Bridges are numbered along the chain shown (N, C = ends). [ ]: non-standard residue; d: D form. The star is where a group is joined. Ileψ(thiazoline)Cys = CC[C@H](C)[C@H](N)C1=N[C@H](C(=O)*)CS1; dOrn = NCCC[C@@H](N)C(=O)O",
  "data": [
    {"molecule": "CO[C@@H]1[C@@H](OC(N)=O)[C@@H](O)[C@H](Oc2ccc3c(O)c(NC(=O)c4ccc(O)c(CC=C(C)C)c4)c(=O)oc3c2C)OC1(C)C", "note": "[novobiocin]", "values": [
      {"measurement": "zone of inhibition at 5 µg/disc", "setting": "[1]", "value": "27 to 28", "unit": "mm"}
    ]},
    {"molecule": "NC[C@H]1O[C@H](O[C@H]2[C@H](O)[C@@H](O[C@H]3O[C@H](CO)[C@@H](O)[C@H](N)[C@H]3O)[C@H](N)C[C@@H]2N)[C@H](N)C[C@@H]1O", "note": "[tobramycin]", "values": [
      {"measurement": "susceptibility of K. aridum", "setting": "[1]; disk 10 μg", "value": "resistant"}
    ]},
    {"molecule": "CN(C)[C@@H]1C(O)=C(C(N)=O)C(=O)[C@@]2(O)C(O)=C3C(=O)c4c(O)ccc(Cl)c4[C@@](C)(O)[C@H]3C[C@@H]12", "note": "[Chlortetracycline]", "values": [
      {"measurement": "zone of inhibition at 5 µg/disc", "setting": "[1]", "value": 18, "unit": "mm"}
    ]},
    {"molecule": "Avoparcin", "values": [
      {"measurement": "GLU (glucose)", "setting": "[2]; 0.5 ppm", "value": 116, "unit": "% Control"},
      {"measurement": "Propionate %", "setting": "[2]; 0.5 ppm", "value": 106, "unit": "% Control"},
      {"measurement": "GLU (glucose)", "setting": "[2]; 5.0 ppm", "value": 166, "unit": "% Control"},
      {"measurement": "Propionate %", "setting": "[2]; 5.0 ppm", "value": 121, "unit": "% Control"},
      {"measurement": "GLU (glucose)", "setting": "[2]; 50.0 ppm", "value": 141, "unit": "% Control"},
      {"measurement": "Propionate %", "setting": "[2]; 50.0 ppm", "value": 132, "unit": "% Control"}
    ]},
    {"molecule": "gentamicin", "values": [
      {"measurement": "susceptibility of K. aridum", "setting": "[1]; disk 10 μg", "value": "resistant"}
    ]},
    {"molecule": "CC[C@H](C)[C@H](N)C1=N[C@H](C(=O)N[C@@H](CC(C)C)C(=O)N[C@H](CCC(=O)O)C(=O)N[C@H](C(=O)N[C@H]2CCCCNC(=O)[C@H](CC(N)=O)NC(=O)[C@@H](CC(=O)O)NC(=O)[C@H](Cc3cnc[nH]3)NC(=O)[C@@H](Cc3ccccc3)NC(=O)[C@H]([C@@H](C)CC)NC(=O)[C@@H](CCCN)NC2=O)[C@@H](C)CC)CS1", "note": "[bacitracin] ({Ileψ(thiazoline)Cys}-L[dE]IK[dOrn]I[dF]H[dD]N; lactam 4-C)", "values": [
      {"measurement": "susceptibility of K. aridum", "setting": "[1]; disk 2 units", "value": "resistant"}
    ]},
    {"molecule": "CCC[C@@H]1C[C@@H](C(=O)N[C@@H]([C@H]2O[C@H](SC)[C@H](O)[C@@H](O)[C@H]2O)[C@H](C)Cl)N(C)C1", "note": "[clindamycin]", "values": [
      {"measurement": "susceptibility of K. aridum", "setting": "[1]; disk 2 μg", "value": "resistant"}
    ]},
    {"molecule": "CCC[C@@H]1C[C@@H](C(=O)N[C@@H]([C@H]2O[C@H](SC)[C@H](O)[C@@H](O)[C@H]2O)[C@@H](C)O)N(C)C1", "note": "[lincomycin]", "values": [
      {"measurement": "susceptibility of K. aridum", "setting": "[1]; disk 2 μg", "value": "resistant"}
    ]},
    {"molecule": "CC(=O)OCC1=C(C(=O)O)N2C(=O)[C@@H](NC(=O)Cc3cccs3)[C@H]2SC1", "note": "[cephalothin]", "values": [
      {"measurement": "susceptibility of K. aridum", "setting": "[1]; disk 30 μg", "value": "resistant"}
    ]},
    {"molecule": "[H]/N=C(/N)N[C@H]1[C@H](O)[C@@H](O)[C@H](O[C@@H]2O[C@@H](C)[C@](O)(C=O)[C@H]2O[C@@H]2O[C@@H](CO)[C@H](O)[C@@H](O)[C@@H]2NC)[C@@H](N/C(N)=N\\[H])[C@@H]1O", "note": "[streptomycin]", "values": [
      {"measurement": "susceptibility of K. aridum", "setting": "[1]; disk 10 μg", "value": "resistant"}
    ]},
    {"molecule": "CN(C)C1C(=O)C(C(N)=O)=C(O)C2(O)C(=O)C3=C(O)c4c(O)cccc4C(C)(O)C3CC12", "note": "(stereo not shown) [tetracycline]", "values": [
      {"measurement": "zone of inhibition at 5 µg/disc", "setting": "[1]", "value": "11 to 12", "unit": "mm"}
    ]},
    {"molecule": "CO[C@H]1/C=C/O[C@@]2(C)Oc3c(C)c(O)c4c(O)c(c(/C=N/N5CCN(C)CC5)c(O)c4c3C2=O)NC(=O)/C(C)=C\\C=C\\[C@H](C)[C@H](O)[C@@H](C)[C@@H](O)[C@@H](C)[C@H](OC(C)=O)[C@@H]1C", "note": "[rifampin]", "values": [
      {"measurement": "zone of inhibition at 5 µg/disc", "setting": "[1]", "value": "11 to 15", "unit": "mm"}
    ]},
    {"molecule": "CC1(C)S[C@@H]2[C@H](NC(=O)Cc3ccccc3)C(=O)N2[C@H]1C(=O)O", "note": "[penicillin]", "values": [
      {"measurement": "susceptibility of K. aridum", "setting": "[1]; disk 10 units", "value": "resistant"}
    ]},
    {"molecule": "Virginiamycin", "values": [
      {"measurement": "Weight Day 10", "setting": "[3]; 10.0 PPM", "value": "103.8 % of Control"},
      {"measurement": "Weight Day 17", "setting": "[3]; 10.0 PPM", "value": "116.0 % of Control"},
      {"measurement": "Feed/Gain 3-10", "setting": "[3]; 10.0 PPM", "value": "97.4 % of Control"},
      {"measurement": "Feed/Gain 3-17", "setting": "[3]; 10.0 PPM", "value": "90.4 % of Control"},
      {"measurement": "Feed/Gain 10-17", "setting": "[3]; 10.0 PPM", "value": "83.6 % of Control"},
      {"measurement": "Weight Day 10", "setting": "[3]; 50.0 PPM", "value": "105.0 % of Control"},
      {"measurement": "Weight Day 17", "setting": "[3]; 50.0 PPM", "value": "121.3 % of Control"},
      {"measurement": "Feed/Gain 3-10", "setting": "[3]; 50.0 PPM", "value": "93.2 % of Control"},
      {"measurement": "Feed/Gain 3-17", "setting": "[3]; 50.0 PPM", "value": "83.2 % of Control"},
      {"measurement": "Feed/Gain 10-17", "setting": "[3]; 50.0 PPM", "value": "74.6 % of Control"},
      {"measurement": "LAC (L-lactic acid)", "setting": "[4]", "value": 81, "unit": "% Control"},
      {"measurement": "GLU (glucose)", "setting": "[4]; 1.67 ppm", "value": 182, "unit": "% Control"},
      {"measurement": "LAC (L-lactic acid)", "setting": "[4]; 1.67 ppm", "value": 70, "unit": "% Control"},
      {"measurement": "LYS (lysine)", "setting": "[4]; 1.67 ppm", "value": 82, "unit": "% Control"},
      {"measurement": "GLU (glucose)", "setting": "[4]; 16.67 ppm", "value": 191, "unit": "% Control"},
      {"measurement": "LAC (L-lactic acid)", "setting": "[4]; 16.67 ppm", "value": 76, "unit": "% Control"},
      {"measurement": "LYS (lysine)", "setting": "[4]; 16.67 ppm", "value": 127, "unit": "% Control"},
      {"measurement": "GLU (glucose)", "setting": "[4]; 166.67 ppm", "value": 197, "unit": "% Control"},
      {"measurement": "LYS (lysine)", "setting": "[4]; 166.67 ppm", "value": 163, "unit": "% Control"}
    ]},
    {"molecule": "CC[C@@]1([C@H]2O[C@H]([C@H]3O[C@@](O)(CO)[C@H](C)C[C@@H]3C)C[C@H]2C)CC[C@H]([C@@]2(C)CC[C@]3(C[C@H](O)[C@@H](C)[C@@H]([C@H](C)[C@H](OC)[C@@H](C)C(=O)O)O3)O2)O1", "note": "[Monensin Sodium]", "values": [
      {"measurement": "LYS (lysine)", "setting": "[5]", "value": "147 % Control and 141 % Control"},
      {"measurement": "Propionate %", "setting": "[2]", "value": "156 % Control and 149 % Control and 119 % Control"},
      {"measurement": "VFA (total of volatile fatty acids)", "setting": "[2]", "value": "104 % Control and 94 % Control"}
    ]}
  ]
}
